Laboratory results as given in patent EP0216028A2, “Use of anthranilic-acid derivatives as anthelmintic medicaments” (HOECHST AKTIENGESELLSCHAFT, priority 1985, dated 1987).
Like-named read-outs stand apart in the source and are kept apart here.

Assays:
[1] = system: Leberegel (Fasciola hepatica); assay: Chemotherapeutic test in sheep infected with liver fluke (egg count reduction / worm burden); type: in vivo; settings: Wirtstier: Schaf, p.o.; for minimal effective dose: Fasciola hepatica, po, read-out: Dosis (>90% Reduktion der Wurmbürde); for Chemotherapeut. Index: quotient of Dosis tolerata maxima and Dosis curativa minima
Text: (§1) Zur Feststellung der anthelminthischen Wirkung der Verbindungen der Formel I wurden chemotherapeutische Untersuchungen an ca. 25-30 kg schweren Schaflämmern ausgeführt, die entweder mit Metazerkarien von Fasciola hepatica oder mit Larven von Magen-Darm-Strongyliden, vornehmlich Haemonchus contortus und Trichostongylus colubriformis, oral infiziert worden waren. Nach Ablauf der Präpatenzperiode (Zeit zwischen Infektion und Geschlechtsreife der Parasiten mit beginnender Ausscheidung von Eiern oder Larven) wurde der Parasitenbefall durch Kotuntersuchungen gesichert. […] Unmittelbar danach wurde die Behandlung der Schafe (im allgemeinen 3 - 4 Tiere pro Wirkstoff, mindestens aber 2) vorgenommen. Den Tieren wurde oral oder parenteral eine Suspension von unterschiedlicher Wirkstoffmenge in jeweils 10 ml einer 1%igen Carboxymethylcellulose-Suspension appliziert. Jeweils am 7., 14. und 28. Tag nach der Behandlung wurde wiederum nach den vorstehend angegebenen Verfahren die Eizahl pro Gramm Kot ermittelt und ihre prozentuale Abnahme im Vergleich zum Ausgangswert vor der Behandlung errechnet. Mit einigen Verbindungen wurden außerdem beim Fasciola-Befall noch eine zusätzliche Prüftechnik angewandt: Nach Abschluß der Präpatenzperiode wurde bei Fasciola-positiven Schafen ein künstlicher Gallengang geschaffen, der am Ausgang der Gallenblase ein Sieb enthielt, so daß die nach der Behandlung abgetöteten Leberegel in der Gallenblase aufgefangen werden konnten. Vier bis sieben Tage nach der Behandlung wurden die so operierten und dann behandelten Schafe getötet, die abgetöteten Leberegel in der Gallenblase sowie noch eventuell in der Leber vorhandene lebende Leberegel gezählt und von der gesamten Wurmbürde der Prozentsatz der abgetöteten Parasiten berechnet.
(§2) Der chemotherapeutische Index gibt den Quotienten aus Do- sis tolerata maxima und Dosis curativa minima an.

[2] = system: Magen-Darm-Würmer(Ostertagia, Haemonchur, Trichostrongylus, Cooperia, jeweils verschiedene Spezies); assay: Chemotherapeutic test in sheep infected with gastrointestinal worms (egg count reduction / worm burden); type: in vivo; settings: Tabelle 2, Wirtstier: Schaf, p.o.; for Chemotherapeut. Index: quotient of Dosis tolerata maxima and Dosis curativa minima; for minimal effective dose: Trichostrongylus, po, read-out: Dosis (>90% Reduktion der Wurmbürde)
Text: as §1, §2

[3] = Tabelle 3 (comparison of isomers)
[4] = Tabelle 1, minimum curative dose

| Compound | minimal effective dose [1, 3] [mg/kg] | Chemotherapeut. Index [1, 3] | minimal effective dose [1, 4] [mg/kg] | Chemotherapeut. Index ([1]; Tabelle 1) | also measured |
| --- | --- | --- | --- | --- | --- |
| O=C(Nc1ccc(Cl)cc1)c1ccc(Cl)cc1NS(=O)(=O)c1ccc(Cl)cc1 [V1, 4-Chlor-2-[(4-chlor-phenylsulfonyl)-amino]-benzoesäure-(4-chloranilid), reference compound] | 30 | 2 | – | – | – |
| O=C(Nc1ccc(Cl)cc1)c1ccc(NS(=O)(=O)c2ccc(Cl)cc2)cc1Cl [V2, reference compound] | 20 | 3 | – | – | – |
| O=C(Nc1ccc(Cl)cc1)c1ccc(NS(=O)(=O)c2ccc(Cl)cc2)c(Cl)c1 [V3, reference compound] | 30 | 2 | – | – | – |
| O=C(Nc1ccc(Cl)cc1)c1ccc(Cl)c(NS(=O)(=O)c2ccc(Cl)cc2)c1 [V4, 4-Chlor-3-[(4-Chlorphenylsulfonyl)-amino]-benzoesäure-(4-chlor-anilid), reference compound] | 15 | 4 | – | – | – |
| O=C(Nc1ccc(Cl)cc1)c1cc(NS(=O)(=O)c2ccc(Cl)cc2)ccc1Cl [V5, reference compound] | 30 | 2 | – | – | – |
| O=C(Nc1ccc(Cl)c(Cl)c1)c1ccc(Cl)cc1NS(=O)(=O)c1ccc(Cl)cc1 [V6, 4-Chlor-2-[(4-chlor-phenylsulfonyl)-amino]-benzoesäure-(3,4-dichlor-anilid), reference compound] | 30 | 2 | – | – | – |
| O=C(Nc1ccc(F)cc1)c1cc(NS(=O)(=O)c2ccc(Cl)cc2)ccc1Cl [V7, 2-Chlor-5-[(4-chlor-phenylsulfonyl)-amino]-benzoesäure-(4-fluor-anilid), reference compound] | 30 | 2 | – | – | – |
| O=C(Nc1ccc(Cl)cc1)c1ccc(NS(=O)(=O)c2ccc(Cl)cc2)cc1Br [V8, reference compound] | 30 | 2 | – | – | – |
| O=C(Nc1ccc(Cl)cc1)c1ccc(Br)cc1NS(=O)(=O)c1ccc(Cl)cc1 [V9, 4-Brom-2-[(4-chlor-phenylsulfonyl)-amino]-benzoesäure-(4-chlor-anilid), reference compound] | 20 | 3 | – | – | – |
| O=C(Nc1ccc(Cl)c(Cl)c1)c1ccc(NS(=O)(=O)c2ccc(Cl)cc2)cc1Cl [V10, reference compound] | 10 | 5 | – | – | – |
| O=C(Nc1ccc(Cl)cc1)c1cc(Cl)ccc1NS(=O)(=O)c1ccc(Cl)cc1 [Verbindung 1] | 1.5 | über 25 | 1.5 | über 25 | – |
| O=C(Nc1ccc(Cl)cc1Cl)c1cc(Cl)ccc1NS(=O)(=O)c1ccc(Cl)cc1 [Verbindung 2, 5-Chlor-2-[(4-chlor-phenylsulfonyl)-amino]-benzoesäure-(2,4-dichlor-anilid)] | – | – | 7.5 | 8 | – |
| O=C(Nc1ccc(Cl)c(Cl)c1)c1cc(Cl)ccc1NS(=O)(=O)c1ccc(Cl)cc1 [Verbindung 3, 5-Chlor-2-t(4-chlor-phenylsulfonyl)-aminoJ-benzoesäure-(3,4-dichloranilid)] | 5 | 10 | 5 | 10 | – |
| O=C(Nc1ccc(F)cc1)c1cc(Cl)ccc1NS(=O)(=O)c1ccc(Cl)cc1 [Verbindung 4] | – | 20 | 2.5 | 20 | Dosis (>90% Reduktion der Wurmbürde) [1, 3]: 2,5 mg/kg Körpergewicht |
| O=C(Nc1ccc(Br)cc1)c1cc(Cl)ccc1NS(=O)(=O)c1ccc(Cl)cc1 [Verbindung 5, 5-Chlor[(4-chlor-phenylsulfonyl)-amino]-benzoesäure-(4-brom-anilid)] | – | – | 5 | 10 | – |
| CN(C(=O)c1cc(Cl)ccc1NS(=O)(=O)c1ccc(Cl)cc1)c1ccc(Cl)cc1 [Verbindung 6] | – | – | – | – | Chemotherapeut. Index [2]: 5; minimal effective dose [2]: 10 mg/kg |
| O=C(Nc1ccc(Cl)cc1)c1cc(Br)ccc1NS(=O)(=O)c1ccc(Cl)cc1 [Verbindung 9, 5-Brom-2-[(4-chlor-phenylsulfonyl)-amino]-benzoesäure-(4-chlor-anilid)] | 2.5 | 20 | 5 | 10 | – |
| O=C(Nc1ccc(Cl)cc1)c1cc(Cl)c(Cl)cc1NS(=O)(=O)c1ccc(Cl)cc1 [Verbindung 12, 4,5-Dichlor-2-[(4-chlor-phenylsulfonyl)-amino]-benzoesäure-(4-chlor-anilid)] | – | – | 5 | 10 | – |
| O=C(Nc1ccc(F)cc1)c1cc(Cl)cc(Cl)c1NS(=O)(=O)c1ccc(Cl)cc1 [Verbindung 14, 3,5-Dichlor-2-[(4-chlor-phenylsulfonyl)-amino]-benzoesäure-(4-fluor-anilid)] | – | – | 7.5 | 5 | – |
| CCCCCCCCCCCCNC(=O)c1cc(Cl)cc(Cl)c1NS(=O)(=O)c1ccc(Cl)cc1 [Verbindung 16] | – | – | – | – | Chemotherapeut. Index [2]: 10; minimal effective dose [2]: 5 mg/kg |
| CCCCCCCCCCCCNC(=O)c1cc(Cl)ccc1NS(=O)(=O)c1ccc(Cl)cc1 [Verbindung 17, 5-Chlor-2-[(4-chlor-phenylsulfonyl)-amino]-benzoesäure-dodecylamid] | – | – | 2.5 | 20 | – |
| CCCCCCCCCCCCN(C)C(=O)c1cc(Cl)ccc1NS(=O)(=O)c1ccc(Cl)cc1 [Verbindung 19, 5-Chlor-2-[(4-chlor-phenylsulfonyl)-amino]-benzoesäure-(N-methyl-dodecylamid)] | – | – | 7.5 | 5 | – |
| O=C(Nc1ccc(Cl)cc1)c1cc(Cl)ccc1NS(=O)(=O)c1ccc(Cl)cc1Cl [Verbindung 25, 5-Chlor-2-[(2,4-dichlor-phenylsulfonyl)-amino]-benzoesäure-(4-chloranilid)] | – | – | 7.5 | 6 | – |
| O=C(Nc1ccc(Cl)cc1)c1cc(Cl)ccc1NS(=O)(=O)c1ccc(Cl)c(Cl)c1 [Verbindung 26, 5-Chlor-2-[(3,4-dichlor-phenylsulfonyl)-amino]-benzoesäure-(4-chlor-anilid)] | – | über 25 | 1 | über 25 | Dosis (>90% Reduktion der Wurmbürde) [1, 3]: 1 mg/kg Körpergewicht |
| CCCCCCCCNC(=O)c1cc(Cl)ccc1NS(=O)(=O)c1ccc(Cl)c(Cl)c1 [Verbindung 27, 5-Chlor-2-[(3,4-dichlor-phenylsulfonyl)-amino]-benzoesäure-octylamid] | – | – | 7.5 | 8 | – |
| CCN(C(=O)c1cc(Cl)ccc1NS(=O)(=O)c1ccc(Cl)c(Cl)c1)c1ccc(Cl)cc1 [Verbindung 29] | – | – | 1.5 | über 25 | – |
| CN(c1ccc(Cl)cc1C(=O)Nc1ccc(Cl)cc1)S(=O)(=O)c1ccc(Cl)c(Cl)c1 [Verbindung 30, 5-Chlor-2-[(3,4-dichlor-phenylsulfonyl)-methylamino]-benzoesäure-(4-chlor-anilid)] | – | – | 5 | 10 | – |
| CCCCCCCCCCCCCCCCCCNC(=O)c1cc(Cl)ccc1NS(=O)(=O)c1ccc(Cl)c(Cl)c1 [Verbindung 32, 5-Chlor-2-[(3,4-dichlor-phenyl-sulfonyl)-amino]-benzoesäure-octa-decylamid] | – | – | 5 | 10 | – |
| O=C(Nc1ccc(C(F)(F)F)cc1)c1cc(Cl)ccc1NS(=O)(=O)c1ccc(Cl)c(Cl)c1 [Verbindung 34, 5-Chlor-2-[(3,4-dichlor-phenylsulfonyl)-amino]-benzoesäure-(4-trifluormethyl-anilid)] | – | – | 2.5 | 20 | – |
| CCS(=O)(=O)c1ccc(NS(=O)(=O)c2ccc(Cl)c(Cl)c2)c(C(=O)Nc2ccc(Cl)cc2)c1 [Verbindung 40] | – | – | 5 | 10 | – |
